{"source": "paper PMC4701221", "about": "“Novel Promising Estrogenic Receptor Modulators: Cytotoxic and Estrogenic Activity of Benzanilides and Dithiobenzanilides” (PLoS ONE, 2016)", "key": {"MDA-MB-231 cells": {"tested_on": "MDA-MB-231 cells", "experiment": "MTT assay, MDA-MB-231", "type": "cell-based, human", "protocol": "(§1) The cell lines used in the cytotoxicity study, besides MCF-12A, were purchased from European Collection of Cell Culture (ECACC, Salisbury, UK): HEK293 (human embryonic kidney, ATTC no. CRL-1573), A549 (Human lung carcinoma, ECACC no. 86012804), CCD39Lu (Human lung fibroblasts, ECACC no. 90110512), MCF-7 (Human breast adenocarcinoma, ECACC no. 86012803) and MDA-MB-231 (Human breast adenocarcinoma ECACC no. 92020424). Cell lines were cultured in DMEM medium without phenol red and supplemented with 10% (v/v) FBS, 1% penicillin-streptomycin and 1% L-glutamine. MCF-12A (ATTC no. […]) was purchased from American Type Culture Collection (ATCC Manassas, VA 20110 USA). MCF-12A cells were kept in 1:1 mixture of Dulbecco’s modified Eagle’s medium and Ham’s F12 medium, 20 ng/ml human epidermal growth factor, 100 ng/ml cholera toxin, 0.01 mg/ml bovine insulin, 500 ng/ml hydrocortisone and 5% horse serum. All cell lines were cultured at 37°C, in a humidified atmosphere containing 5% CO2.\n(§2) Compounds were dissolved in DMSO to the final concentration of […]. A549, CCD39Lu, MCF-7, MDA-MB-231 and MCF-12A cells were seeded in 96 wells plates at density 2x10^4 cells/well and incubated overnight as described above. Subsequently, cells were treated with tested compounds at concentrations: 100 μM; 50 μM; 25μM; 12.5μM; 6 μM; 3 μM; 1.5 μM. […] Cells were incubated 72 h at 37°C in a humidified atmosphere containing 5% CO2 in the cell culture media appropriate for each cell line. Then, the medium was aspirated and 170 μl MTT solution (5mg/ml) was added to each well. Plates were incubated for 2 hours at 37°C, and then plates were centrifuged at 1200 rpm for 3 minutes. The formazan crystals were dissolved in 200 μl DMSO and plates were further agitated on a plate shaker at 300–500 rpm for 10 minutes. Absorbance at 570 nm (with reference wavelenght 650 nm) was measured using a plate reader (Biotek Instruments, Elx-800). Cell viability was calculated as a percentage relative to the control."}, "MTT assay, MCF-12A": {"experiment": "MTT assay, MCF-12A", "type": "cell-based", "conditions": "human, MCF-12A cells (non-tumorigenic breast epithelial), read-out: Cytotoxic activity IC50, MCF-12A", "protocol": "as §1, §2"}, "[1]": {"tested_on": "ERα transfected HEK293 cells", "experiment": "MTT cell viability, ERα transfected HEK293 cells", "type": "cell-based, human", "conditions": "0–100 μM, 72 h, Fig 6B", "protocol": "as §2, with “The formazan crystals were dissolved in 200 μl DMSO and plates were further agitated on a plate shaker at 300–500 rpm for 10 minutes.” left out\n(§3) Fig 6 Estrogenic and cytotoxic activity of tested compounds in HEK293 cells transfected with wild type ERα receptor or plasmids bearing mutated versions of ERα. […] Results are expressed as mean ± SEM (n = 8). * p < 0.05 was considered statistically significant. […] 48 h after transfection, cells were incubated in the presence of increasing concentrations of compounds 18 for 72 h and cell viability was measured by MTT assay. […]"}, "MTT assay, CCD39Lu": {"experiment": "MTT assay, CCD39Lu", "type": "cell-based", "conditions": "human, CCD39Lu cells (non-tumorigenic lung fibroblasts), read-out: Cytotoxic activity IC50, CCD39Lu", "protocol": "as §1, §2"}, "A549 cells": {"tested_on": "A549 cells", "experiment": "MTT assay, A549", "type": "cell-based", "conditions": "Homo sapiens, 72 h, lung adenocarcinoma, read-out: Cytotoxic activity IC50, A549", "protocol": "as §1, §2"}, "HEK293 cells": {"tested_on": "HEK293 cells", "experiment": "MTT cell viability, non-transfected (mock) HEK293 cells", "type": "cell-based, human", "conditions": "0–100 μM, 72 h, Fig 6B", "protocol": "as §2, with “The formazan crystals were dissolved in 200 μl DMSO and plates were further agitated on a plate shaker at 300–500 rpm for 10 minutes.” left out\nas §3"}, "estrogen receptor": {"molecular_target": "T1, estrogen receptor (Homo sapiens, UniProt P03372)", "T1 construct": "MCF-7 cells, which endogenously express ERα receptor; endogenous in cells; host or cells: MCF-7", "T1 sequence (P03372 1-595)": "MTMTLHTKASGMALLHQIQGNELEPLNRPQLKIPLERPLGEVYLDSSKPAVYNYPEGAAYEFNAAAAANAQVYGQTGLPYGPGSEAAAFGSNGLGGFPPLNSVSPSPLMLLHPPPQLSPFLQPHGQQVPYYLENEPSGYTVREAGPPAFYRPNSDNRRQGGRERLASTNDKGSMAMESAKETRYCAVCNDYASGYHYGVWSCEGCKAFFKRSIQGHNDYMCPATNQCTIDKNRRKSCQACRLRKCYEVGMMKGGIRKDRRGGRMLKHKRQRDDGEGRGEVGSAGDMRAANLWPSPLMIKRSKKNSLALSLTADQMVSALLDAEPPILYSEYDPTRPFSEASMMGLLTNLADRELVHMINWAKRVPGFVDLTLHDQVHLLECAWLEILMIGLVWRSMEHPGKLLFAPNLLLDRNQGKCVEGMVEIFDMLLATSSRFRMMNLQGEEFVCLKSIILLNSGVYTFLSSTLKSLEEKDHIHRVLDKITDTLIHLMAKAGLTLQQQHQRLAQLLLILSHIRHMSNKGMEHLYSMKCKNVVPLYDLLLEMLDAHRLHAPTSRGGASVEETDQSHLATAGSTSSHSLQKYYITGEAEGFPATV", "experiment": "Estrogen Receptor luciferase assay in MCF-7 cells (endogenous ER)", "type": "cell-based", "conditions": "MCF-7 transfected with p3xERRE/ERE-luciferase, Fig 3C", "text": "To obtain a eukaryotic vector expressing only the ER-α nuclear receptor, a construct was designed by cloning a KpnI-BamHI fragment from plasmid pEGFP-C1-ERα containing the ERα coding sequence that includes a stop signal into the pEGFP-N3 plasmid (Clontech Laboratories, Palo Alto, CA) under the control of the CMV promoter. This construction was termed pEGFP-N-ERα, and although it encoded both human ERα receptor and GFP protein, only the former is expressed. For mock transfections, pEGFP-N3 plasmid was digested with BglII and NotI and religated after polishing DNA ends to remove GFP coding sequence. Plasmid sequence was confirmed by automatic sequencing. Prior to transfection, cells were seeded in 48 well plates at density of 1.5 x 10^4 cells/well and incubated for 24 h to reach a cell confluence of 80–90%. […] MCF-7 cells, which endogenously express ERα receptor, were transfected with p3xERRE/ERE-luciferase plus the pRLTK Renilla luciferase control plasmid (95:5). Firefly and Renilla luciferase activities were measured using the Dual Luciferase Assay System (Promega, Madison, WI, USA), following a standard protocol using a Sirius L luminometer (Berthold Technologies, Bad Wildbad, Germany). Data were expressed as relative changes in luciferase activity and normalized to 100%."}}, "data": [{"compound": "Fc1ccc(NC(=S)c2ccc(NC(=S)c3ccc(F)cc3)cc2)cc1", "note": "[Compound 18]", "values": [{"measurement": "Toxicity/effect in MTT assay (in words), MDA-MB-231", "setting": "MDA-MB-231 cells; 72 h", "value": "non-significant effects"}, {"measurement": "IC50", "setting": "MDA-MB-231 cells; Homo sapiens, MDA-MB-231, 72 h, estrogen independent breast adenocarcinoma, read-out: Cytotoxic activity IC50, MDA-MB-231", "value": "> 100", "unit": "µM"}, {"measurement": "IC50 at 72 h", "setting": "MTT assay, MCF-12A", "value": 91.5, "unit": "µM"}, {"measurement": "Cell viability, ERα transfected HEK293", "setting": "[1]", "value": "significantly decreased cell viability"}, {"measurement": "IC50 at 72 h", "setting": "MTT assay, CCD39Lu", "value": "> 100", "unit": "µM"}, {"measurement": "IC50", "setting": "A549 cells", "value": "> 100", "unit": "µM"}, {"measurement": "Cell viability, non-transfected HEK293", "setting": "HEK293 cells", "value": "moderate cell toxicity"}, {"measurement": "Transcriptional (luciferase) activity in MCF-7", "setting": "estrogen receptor", "value": "significantly higher transcriptional activity compared to estradiol"}]}]}
